Source: patent US20250333397A1 (REMIX THERAPEUTICS INC., priority 2021, published 2025)
Where two headings read alike, the source gives them in different places.

Tests used:
Format in all cases: cell-based, human
SMN2 mRNA = test: RT-qPCR splicing assay panel, SMN2 canonical junction (CJ) mRNA; details: Homo sapiens, canonical junction (CJ) mRNA, RT-qPCR panel, Table 4A; read-out: SMN2, decrease in CJ mRNA levels, IC50
In short: (§1)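 A673 (DMEM/10% FBS) or K562 (IMDM/10% FBS) cells treated 24 h at 37 °C with 11-point 3-fold dilutions, top 10 uM final, DMSO ≤0.25%. Lysates read by one-step RT-qPCR for CJ and AJ isoforms, normalized to GAPDH, GUSB or PPIA. ΔΔCt vs DMSO gives RQ via 2^(-ΔΔCt).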

Target C mRNA = test: RT-qPCR splicing assay panel, Target C canonical junction (CJ) mRNA; details: Homo sapiens, canonical junction (CJ) mRNA, RT-qPCR panel, Table 4A; read-out: Target C, decrease in CJ mRNA levels, IC50
In short: as §1

MYB mRNA = test: RT-qPCR splicing assay, MYB canonical (CJ) and alternative (AJ) junction mRNA; details: Homo sapiens; for AC50: read-out: MYB AJ (AC50, increase in AJ mRNA)
In short: as §1

HTT mRNA = test: RT-qPCR splicing assay, HTT canonical (CJ) and alternative (AJ) junction mRNA; details: Homo sapiens; for AC50: read-out: HTT AJ (AC50, increase in AJ mRNA)
In short: as §1

[1] = 24 h, Table 3A, A673 or K562 cells, 24 h treatment
[2] = 24 h, Table 3A, A673 or K562 cells, 24 h treatment, read-out: MYB CJ (IC50, decrease in CJ mRNA)
[3] = canonical junction (CJ) mRNA, RT-qPCR panel, Table 4A, read-out: MYB, decrease in CJ mRNA levels, IC50
[4] = 24 h, Table 3A, A673 or K562 cells, 24 h treatment, read-out: HTT CJ (IC50, decrease in CJ mRNA)
[5] = canonical junction (CJ) mRNA, RT-qPCR panel, Table 4A, read-out: HTT, decrease in CJ mRNA levels, IC50

IC50 (SMN2 mRNA) [nM]	IC50 (Target C mRNA) [nM]	IC50 (MYB mRNA; [2]) [nM]	IC50 (MYB mRNA; [3]) [nM]	IC50 (HTT mRNA; [4]) [nM]	IC50 (HTT mRNA; [5]) [nM]	Compound	AC50 (MYB mRNA; [1]) [nM]	AC50 (HTT mRNA; [1]) [nM]
< 100	100 to 1000	100 to 1000	100 to 1000	100 to 1000	100 to 1000	Cc1ncc(-c2ccc(-c3ccc(N4CCC(NC5CCC5)C4)nn3)c(O)c2)o1 (centres unmarked) [Compound 347, 2-{6-[3-(cyclobutylamino)pyrrolidin-1-yl]pyridazin-3-yl}-5-(2-methyl-1,3-oxazol-5-yl)phenol]	100 to 1000	100 to 1000
< 100	100 to 1000	100 to 1000	100 to 1000	< 100	< 100	COc1cc(-c2ccc(-c3ccc(N4CCC(CNC5CCC5)C4)nn3)c(O)c2)cnn1 (centres unmarked) [Compound 348, 2-(6-{3-[(cyclobutylamino)methyl]pyrrolidin-1-yl}pyridazin-3-yl)-5-(6-methoxypyridazin-4-yl)phenol]	1000 to 10000	100 to 1000
100 to 1000	1000 to 10000	100 to 1000	100 to 1000	100 to 1000	100 to 1000	Cc1ncc(-c2ccc(-c3ccc(N4CCC(NC5CCC5)C4)nn3)nc2F)s1 (centres unmarked) [Compound 349]	100 to 1000	100 to 1000
< 100	< 100	< 100	< 100	< 100	< 100	Cc1ncc(-c2cc(O)c(-c3ccc(N4CCC(NC5CCOC5)C4)nn3)cc2F)s1 (centres unmarked) [Compound 350, 4-fluoro-5-(2-methyl-1,3-thiazol-5-yl)-2-{6-[3-(oxolan-3-ylamino)pyrrolidin-1-yl]pyridazin-3-yl}phenol]	100 to 1000	< 100
100 to 1000	100 to 1000	100 to 1000	100 to 1000	< 100	< 100	COc1cc(-c2ccc(-c3ccc(N4CCC(CNC(C)(C)C)C4)nn3)c(O)c2)cnn1 (centres unmarked) [Compound 351, 2-(6-{3-[(tert-butylamino)methyl]pyrrolidin-1-yl}pyridazin-3-yl)-5-(6-methoxypyridazin-4-yl)phenol]	1000 to 10000	100 to 1000
100 to 1000	100 to 1000	100 to 1000	100 to 1000	100 to 1000	100 to 1000	COc1cc(-c2ccc(-c3ccc(N4CCC(NC5CC(C)(C)C5)C4)nn3)c(O)c2)cnn1 (centres unmarked) [Compound 352, 2-(6-{3-[(3,3-dimethylcyclobutyl)amino]pyrrolidin-1-yl}pyridazin-3-yl)-5-(6-methoxypyridazin-4-yl)phenol]	1000 to 10000	100 to 1000
< 100	100 to 1000	1000 to 10000	1000 to 10000	100 to 1000	100 to 1000	COc1cc(-c2ccc(-c3ccc(N4CCC(NC5CC6(CCC6)C5)C4)nn3)c(O)c2)cnn1 (centres unmarked) [Compound 353, 5-(6-methoxypyridazin-4-yl)-2-[6-(3-{spiro[3.3]heptan-2-ylamino}pyrrolidin-1-yl)pyridazin-3-yl]phenol]	1000 to 10000	100 to 1000
< 100	< 100	100 to 1000	100 to 1000	< 100	< 100	Cc1ncc(-c2cc(O)c(-c3ccc(N4CCC(NC5CCOCC5)C4)nn3)cc2F)s1 (centres unmarked) [Compound 354, 4-fluoro-5-(2-methyl-1,3-thiazol-5-yl)-2-{6-[3-(oxan-4-ylamino)pyrrolidin-1-yl]pyridazin-3-yl}phenol]	< 100	< 100
< 100	< 100	100 to 1000	100 to 1000	< 100	< 100	COc1nc(-c2ccc(N3CCC(NC(C)(C)C)C3)nn2)ccc1-c1cnc(C)s1 (centres unmarked) [Compound 355]	100 to 1000	< 100
< 100	100 to 1000	100 to 1000	100 to 1000	< 100	< 100	Cc1ncc(-c2ccc(-c3ccc(N4CC[C@@](C)(NC5CCC5)C4)nn3)c(O)c2)s1 [Compound 356]	100 to 1000	< 100
< 100	< 100	100 to 1000	100 to 1000	< 100	< 100	Cc1ncc(-c2ccc(-c3ccc(N4CC[C@](C)(NC5CCC5)C4)nn3)c(O)c2)s1 [Compound 357]	100 to 1000	< 100
100 to 1000	1000 to 10000	1000 to 10000	1000 to 10000	100 to 1000	100 to 1000	Cc1nnc(-c2cc(O)c(-c3ccc(N4CC[C@H](NC5CCC5)C4)nn3)cc2F)s1 [Compound 358]	1000 to 10000	1000 to 10000
100 to 1000	1000 to 10000	1000 to 10000	1000 to 10000	100 to 1000	100 to 1000	Cc1nnc(-c2cc(O)c(-c3ccc(N4CC[C@@H](NC5CCC5)C4)nn3)cc2F)s1 [Compound 359]	1000 to 10000	1000 to 10000

Further lines, the compound ahead of its results:

Compound	IC50 (SMN2 mRNA) [nM]	IC50 (Target C mRNA) [nM]	IC50 (MYB mRNA; [2]) [nM]	IC50 (MYB mRNA; [3]) [nM]	IC50 (HTT mRNA; [4]) [nM]	IC50 (HTT mRNA; [5]) [nM]	AC50 (MYB mRNA; [1]) [nM]	AC50 (HTT mRNA; [1]) [nM]
COc1cc(-c2ccc(-c3ccc(N4CC[C@@H](N(C)C(C)(C)C)C4)nn3)c(O)c2)cnn1 [Compound 336, 2-{6-[(3R)-3-[tert-butyl(methyl)amino]pyrrolidin-1-yl]pyridazin-3-yl}-5-(6-methoxypyridazin-4-yl)phenol]	< 100	< 100	< 100	< 100	< 100	< 100	< 100	< 100
COc1cc(-c2ccc(-c3ccc(N4CC[C@H](N(C)C(C)(C)C)C4)nn3)c(O)c2)cnn1 [Compound 337, 2-{6-[(3S)-3-[tert-butyl(methyl)amino]pyrrolidin-1-yl]pyridazin-3-yl}-5-(6-methoxypyridazin-4-yl)phenol]	< 100	< 100	< 100	< 100	< 100	< 100	< 100	< 100
Cc1ncc(-c2cc(O)c(-c3ccc(N4CC[C@@H](NC(C)(C)C)C4)nn3)cc2F)s1 [Compound 338, 2-{6-[(3R)-3-(tert-butylamino)pyrrolidin-1-yl]pyridazin-3-yl}-4-fluoro-5-(2-methyl-1,3-thiazol-5-yl) phenol]	< 100	< 100	< 100	< 100	< 100	< 100	< 100	< 100
Cc1ncc(-c2cc(O)c(-c3ccc(N4CC[C@@H](N(C)C(C)(C)C)C4)nn3)cc2F)s1 [Compound 339, 2-{6-[(3R)-3-[tert-butyl(methyl)amino]pyrrolidin-1-yl]pyridazin-3-yl}-4-fluoro-5-(2-methyl-1,3-thiazol-5-yl)phenol]	< 100	< 100	< 100	< 100	< 100	< 100	< 100	< 100
Cc1ncc(-c2cc(O)c(-c3ccc(N4CCC(CNC5CCC5)C4)nn3)cc2F)s1 (centres unmarked) [Compound 342, 2-(6-{3-[(cyclobutylamino)methyl]pyrrolidin-1-yl}pyridazin-3-yl)-4-fluoro-5-(2-methyl-1,3-thiazol-5-yl)phenol]	< 100	< 100	> 10000	> 10000	< 100	< 100	1000 to 10000	< 100
COc1cc(-c2ccc(-c3cc(C#N)c(N4CC[C@H](NC5CCC5)C4)nn3)c(O)c2)cnn1 [Compound 343, 3-[(3S)-3-(cyclobutylamino)pyrrolidin-1-yl]-6-[2-hydroxy-4-(6-methoxypyridazin-4-yl)phenyl]pyridazine-4-carbonitrile]	100 to 1000	1000 to 10000	> 10000	> 10000	100 to 1000	100 to 1000	> 10000	1000 to 10000
Cc1ncc(-c2ccc(-c3ccc(N4CCC(NC5CCC5)C4)nn3)cc2F)s1 (centres unmarked) [Compound 344]	100 to 1000	1000 to 10000	1000 to 10000	1000 to 10000	1000 to 10000	1000 to 10000	1000 to 10000	1000 to 10000
Oc1cc(-n2cnnc2)ccc1-c1ccc(N2CCC(NC3CCC3)C2)nn1 (centres unmarked) [Compound 345]	100 to 1000	> 10000	1000 to 10000	1000 to 10000	1000 to 10000	1000 to 10000	1000 to 10000	1000 to 10000
CN(c1ccc(-c2ccc(-c3cn[nH]c3)cc2O)nn1)C1CC(C)(C)NC(C)(C)C1 [Compound 360]	< 100	< 100	< 100	< 100	< 100	< 100	< 100	< 100
